Laboratory results: ChEMBL document CHEMBL4229524, “Design, synthesis and preclinical evaluation of 5-methyl-N4-aryl-furo[2,3-d]pyrimidines as single agents with combination chemotherapy potential” (Bioorg Med Chem Lett, 2018)

Columns and labels:
Chorioallantoic membrane [1] = experiment: Potency index, ratio of sunitinib IC50 to test compound IC50 for antiangiogenic activity in Leghorn chicken embryo chorioallantoic membrane; type: functional, tissue-based; conditions: Gallus gallus
A-431 = experiment: Cytotoxicity against human A431 cells over-expressing EGFR; type: functional, cell-based
[2] = target: Platelet-derived growth factor receptor beta (Homo sapiens, UniProt P09619); experiment: Inhibition of PDGF-BB-induced PDGFRbeta activation in human SH-SY5Y cells pretreated for 60 mins followed by PDGF-BB addition and measured after 10 mins by ELISA; type: cell-based
Platelet-derived growth factor receptor beta, sequence (P09619 whole entry): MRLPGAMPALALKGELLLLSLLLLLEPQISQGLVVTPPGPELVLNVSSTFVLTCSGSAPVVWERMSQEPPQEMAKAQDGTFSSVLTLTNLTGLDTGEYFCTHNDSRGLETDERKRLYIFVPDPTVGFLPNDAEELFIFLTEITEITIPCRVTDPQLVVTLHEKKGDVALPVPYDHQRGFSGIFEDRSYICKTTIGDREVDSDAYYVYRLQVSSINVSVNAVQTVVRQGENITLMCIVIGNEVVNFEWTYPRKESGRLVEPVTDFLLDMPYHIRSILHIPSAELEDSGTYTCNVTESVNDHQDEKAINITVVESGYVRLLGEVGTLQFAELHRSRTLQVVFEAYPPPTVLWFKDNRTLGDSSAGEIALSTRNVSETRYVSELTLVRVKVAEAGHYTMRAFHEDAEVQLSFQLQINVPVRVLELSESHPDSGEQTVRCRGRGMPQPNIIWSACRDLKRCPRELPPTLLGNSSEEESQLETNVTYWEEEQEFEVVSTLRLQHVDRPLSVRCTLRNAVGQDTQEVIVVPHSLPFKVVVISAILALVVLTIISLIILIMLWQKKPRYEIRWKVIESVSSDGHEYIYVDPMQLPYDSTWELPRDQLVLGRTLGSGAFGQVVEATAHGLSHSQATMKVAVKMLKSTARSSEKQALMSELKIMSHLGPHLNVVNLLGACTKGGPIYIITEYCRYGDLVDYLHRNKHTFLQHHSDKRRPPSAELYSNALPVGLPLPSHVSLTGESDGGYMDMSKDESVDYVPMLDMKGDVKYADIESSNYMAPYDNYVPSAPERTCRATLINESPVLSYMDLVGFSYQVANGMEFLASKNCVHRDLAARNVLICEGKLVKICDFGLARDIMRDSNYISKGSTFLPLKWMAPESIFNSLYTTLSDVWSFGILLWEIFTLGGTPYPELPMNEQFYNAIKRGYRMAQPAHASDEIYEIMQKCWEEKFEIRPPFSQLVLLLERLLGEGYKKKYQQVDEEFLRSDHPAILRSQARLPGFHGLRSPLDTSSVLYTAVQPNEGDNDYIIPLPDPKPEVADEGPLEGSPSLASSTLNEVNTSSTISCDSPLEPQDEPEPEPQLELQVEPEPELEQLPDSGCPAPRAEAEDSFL

[3] = target: Epidermal growth factor receptor (Homo sapiens, UniProt P00533); type: cell-based
Epidermal growth factor receptor, sequence (P00533 whole entry): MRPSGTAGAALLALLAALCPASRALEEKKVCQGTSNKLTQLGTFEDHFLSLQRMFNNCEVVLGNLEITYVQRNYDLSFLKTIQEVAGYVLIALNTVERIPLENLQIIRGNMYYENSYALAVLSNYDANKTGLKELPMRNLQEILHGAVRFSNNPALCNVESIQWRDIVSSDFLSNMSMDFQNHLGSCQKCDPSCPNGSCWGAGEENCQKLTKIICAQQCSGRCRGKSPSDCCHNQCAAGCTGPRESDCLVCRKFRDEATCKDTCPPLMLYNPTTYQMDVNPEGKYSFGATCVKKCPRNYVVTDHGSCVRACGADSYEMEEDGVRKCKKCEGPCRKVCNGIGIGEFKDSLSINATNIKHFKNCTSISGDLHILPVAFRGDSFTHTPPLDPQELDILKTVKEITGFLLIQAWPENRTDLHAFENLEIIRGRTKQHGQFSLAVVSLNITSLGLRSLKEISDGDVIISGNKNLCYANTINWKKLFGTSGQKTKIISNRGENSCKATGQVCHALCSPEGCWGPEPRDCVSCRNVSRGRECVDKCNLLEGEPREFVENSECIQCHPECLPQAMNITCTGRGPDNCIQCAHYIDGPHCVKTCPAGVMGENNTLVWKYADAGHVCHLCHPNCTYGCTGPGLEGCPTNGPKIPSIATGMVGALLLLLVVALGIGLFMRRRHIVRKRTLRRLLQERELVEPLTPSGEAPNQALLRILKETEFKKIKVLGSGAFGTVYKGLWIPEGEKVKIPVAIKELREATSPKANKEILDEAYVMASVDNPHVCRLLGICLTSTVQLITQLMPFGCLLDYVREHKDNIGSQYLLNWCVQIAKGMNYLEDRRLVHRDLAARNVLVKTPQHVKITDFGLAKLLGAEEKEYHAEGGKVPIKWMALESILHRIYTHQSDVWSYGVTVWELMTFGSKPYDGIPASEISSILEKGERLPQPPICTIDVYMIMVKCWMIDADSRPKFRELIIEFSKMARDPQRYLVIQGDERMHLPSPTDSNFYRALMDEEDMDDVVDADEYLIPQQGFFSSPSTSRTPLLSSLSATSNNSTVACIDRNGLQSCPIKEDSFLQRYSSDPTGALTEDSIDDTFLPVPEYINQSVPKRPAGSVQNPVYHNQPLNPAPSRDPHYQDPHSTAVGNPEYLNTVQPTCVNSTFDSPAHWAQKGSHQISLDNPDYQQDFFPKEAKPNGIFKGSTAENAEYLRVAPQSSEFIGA

[4] = target: Vascular endothelial growth factor receptor 2 (Homo sapiens, UniProt P35968); type: cell-based
Vascular endothelial growth factor receptor 2, sequence (P35968 whole entry): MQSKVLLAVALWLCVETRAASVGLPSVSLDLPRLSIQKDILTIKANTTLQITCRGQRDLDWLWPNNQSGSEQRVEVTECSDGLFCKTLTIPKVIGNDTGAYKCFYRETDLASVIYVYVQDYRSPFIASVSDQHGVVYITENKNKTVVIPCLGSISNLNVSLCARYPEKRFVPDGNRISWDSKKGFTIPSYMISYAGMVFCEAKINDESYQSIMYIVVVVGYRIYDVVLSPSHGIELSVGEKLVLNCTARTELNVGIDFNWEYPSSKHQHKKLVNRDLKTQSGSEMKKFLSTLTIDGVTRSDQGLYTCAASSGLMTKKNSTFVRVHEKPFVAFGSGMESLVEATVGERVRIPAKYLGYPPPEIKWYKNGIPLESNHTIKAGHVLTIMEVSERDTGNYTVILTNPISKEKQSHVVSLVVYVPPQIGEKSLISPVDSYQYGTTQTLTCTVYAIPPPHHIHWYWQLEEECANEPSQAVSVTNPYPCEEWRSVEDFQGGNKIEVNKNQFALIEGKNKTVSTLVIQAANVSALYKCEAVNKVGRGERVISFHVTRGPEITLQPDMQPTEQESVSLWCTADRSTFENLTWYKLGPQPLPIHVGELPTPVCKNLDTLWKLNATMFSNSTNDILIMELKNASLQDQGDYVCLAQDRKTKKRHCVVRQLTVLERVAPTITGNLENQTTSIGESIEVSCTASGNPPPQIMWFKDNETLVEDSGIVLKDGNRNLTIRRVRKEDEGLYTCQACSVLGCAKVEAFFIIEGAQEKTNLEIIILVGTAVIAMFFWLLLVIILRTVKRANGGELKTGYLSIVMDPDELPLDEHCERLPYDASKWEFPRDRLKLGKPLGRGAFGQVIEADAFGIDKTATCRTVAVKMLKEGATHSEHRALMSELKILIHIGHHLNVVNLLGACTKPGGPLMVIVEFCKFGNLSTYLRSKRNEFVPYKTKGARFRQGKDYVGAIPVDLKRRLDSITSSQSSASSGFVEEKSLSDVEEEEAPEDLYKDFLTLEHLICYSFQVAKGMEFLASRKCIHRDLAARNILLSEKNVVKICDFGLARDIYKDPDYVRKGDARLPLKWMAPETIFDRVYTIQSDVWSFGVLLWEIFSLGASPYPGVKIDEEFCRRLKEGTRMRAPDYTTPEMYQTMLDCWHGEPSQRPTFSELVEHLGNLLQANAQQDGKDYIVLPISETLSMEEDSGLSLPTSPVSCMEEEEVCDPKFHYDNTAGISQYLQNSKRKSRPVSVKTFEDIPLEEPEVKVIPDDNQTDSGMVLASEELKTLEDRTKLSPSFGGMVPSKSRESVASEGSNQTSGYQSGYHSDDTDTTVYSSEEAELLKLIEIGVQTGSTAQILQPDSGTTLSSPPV

Chorioallantoic membrane [5] = experiment: Antiangiogenic activity in Leghorn chicken embryo chorioallantoic membrane after 40 hrs by microscopic analysis; type: functional, tissue-based; conditions: Gallus gallus
A10 = experiment: Induction of microtubule depolymerization in rat A10 cells after 18 hrs by indirect immunofluorescence method; type: functional, cell-based; conditions: A10, 18 h

| IC50 [2] | IC50 [3] | IC50 [4] | EC50 (A10) | Structure (SMILES) | Ratio IC50 (Chorioallantoic membrane [1]) | IC50 (A-431) | IC50 (Chorioallantoic membrane [5]) |
| --- | --- | --- | --- | --- | --- | --- | --- |
| 28.9 nM | 4 nM | 7.8 nM |  | CCc1ccc(N(C)c2ncnc3occ(C)c23)cc1 | 4 | 1.4 nM | 287 nM |
| > 200 nM | > 200 nM | > 200 nM | > 10 µM | CNc1ccc(Nc2ncnc3occ(C)c23)cc1 |  |  |  |
| 62.2 nM | 7.2 nM | 13.6 nM |  | CSc1ccc(N(C)c2ncnc3occ(C)c23)cc1 |  | 2.9 nM | 520 nM |
| 42.6 nM | 10.1 nM | 23.4 nM |  | COc1ccc(N(c2ncnc3occ(C)c23)C(C)C)cc1 |  | 4.8 nM | 480 nM |
